Results reported in US7666890B2, “Synthesis and herbicidal activity of 1- (2-substituted benzo[d]thiazol-5-yl)-1H-1,2,4-triazol-5(4H)-one derivatives” (Huazhong Normal University, priority 2007, dated 2010).

Tests used:
Assay in all cases: Test of herbicidal activities (greenhouse pot method)
Assay type in all cases: in vivo
Conditions in all cases: single dose 300 g ai./h, treated before/after germination, 15 days later, greenhouse pot
[1] = test system: Digiatria sanguinalis
Method in brief: (§1)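 Greenhouse pot test on weeds grown in mixed garden/mountain/humus soil at 15-30° C; pre- and post-emergence spray at a single dose of 300 g ai./h via automatic spraying tower (0.2 MPa). Inhibition scored after 15 days into five levels A (90-100%) to E (<50%); triplicate with blank control.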

[2] = test system: Setaria viridis
Method in brief: as §1

[3] = test system: Amaranthus retroflexus
Method in brief: as §1

[4] = test system: Chenopodium album
Method in brief: as §1

[5] = test system: Echinochloa crusgalli
Method in brief: as §1

[6] = test system: Brassica juncea
Method in brief: as §1

SMILES | Herbicidal activity Digiatria sanguinalis (inhibition level) [1] | Herbicidal activity Setaria viridis (inhibition level) [2] | Herbicidal activity Amaranthus retroflexus (inhibition level) [3] | Herbicidal activity Chenopodium album (inhibition level) [4] | Herbicidal activity Echinochloa crusgalli (inhibition level) [5] | Herbicidal activity Brassica juncea (inhibition level) [6]
Cc1ccccc1CSc1nc2cc(-n3nc(C)n(C(F)F)c3=O)c(F)cc2s1 [Compound 14] | C (60 ≦ C < 80%) | C (60 ≦ C < 80%) | B (80 ≦ B < 90%) | C (60 ≦ C < 80%) | B (80 ≦ B < 90%) | A (90 ≦ A ≦ 100%)
CCCCS(=O)(=O)c1nc2cc(-n3nc(C)n(C(F)F)c3=O)c(F)cc2s1 [Compound 63] | A (90 ≦ A ≦ 100%) | C (60 ≦ C < 80%) | A (90 ≦ A ≦ 100%) | A (90 ≦ A ≦ 100%) | B (80 ≦ B < 90%) | B (80 ≦ B < 90%)
Cc1nn(-c2cc3nc(SCc4ccccc4)sc3cc2Cl)c(=O)n1C(F)F [Compound 2] | C (60 ≦ C < 80%) | B (80 ≦ B < 90%) | A (90 ≦ A ≦ 100%) | E (E < 50%) | C (60 ≦ C < 80%) | B (80 ≦ B < 90%)
CCOC(=O)C(C)Sc1nc2cc(-n3nc(C)n(C(F)F)c3=O)c(Br)cc2s1 (stereo not drawn) [Compound 87] | B (80 ≦ B < 90%) | A (90 ≦ A ≦ 100%) | B (80 ≦ B < 90%) | B (80 ≦ B < 90%) | B (80 ≦ B < 90%) | A (90 ≦ A ≦ 100%)
Cc1nn(-c2cc3nc([S+]([O-])Cc4cccc(Cl)c4)sc3cc2Cl)c(=O)n1C(F)F (stereo not drawn) [Compound 107] | B (80 ≦ B < 90%) | D (50 ≦ D < 60%) | A (90 ≦ A ≦ 100%) | B (80 ≦ B < 90%) | B (80 ≦ B < 90%) | A (90 ≦ A ≦ 100%)
Cc1nn(-c2cc3nc([S+](C)[O-])sc3cc2F)c(=O)n1C(F)F (stereo not drawn) [Compound 119] | C (60 ≦ C < 80%) | C (60 ≦ C < 80%) | B (80 ≦ B < 90%) | B (80 ≦ B < 90%) | E (E < 50%) | E (E < 50%)
COc1cccc(CSc2nc3cc(-n4nc(C)n(C(F)F)c4=O)c(F)cc3s2)c1 [Compound 17] | E (E < 50%) | B (80 ≦ B < 90%) | A (90 ≦ A ≦ 100%) | B (80 ≦ B < 90%) | C (60 ≦ C < 80%) | A (90 ≦ A ≦ 100%)
Cc1nn(-c2cc3nc(S(=O)(=O)Cc4ccccc4F)sc3cc2F)c(=O)n1C(F)F [Compound 52] | A (90 ≦ A ≦ 100%) | B (80 ≦ B < 90%) | C (60 ≦ C < 80%) | B (80 ≦ B < 90%) | E (E < 50%) | B (80 ≦ B < 90%)
Cc1nn(-c2cc3nc(SCc4ccc(F)cc4F)sc3cc2F)c(=O)n1C(F)F [Compound 12] | B (80 ≦ B < 90%) | B (80 ≦ B < 90%) | A (90 ≦ A ≦ 100%) | E (E < 50%) | E (E < 50%) | C (60 ≦ C < 80%)
Cc1nn(-c2cc3nc(SCc4ccc(Br)cc4)sc3cc2Br)c(=O)n1C(F)F [Compound 26] | C (60 ≦ C < 80%) | C (60 ≦ C < 80%) | B (80 ≦ B < 90%) | A (90 ≦ A ≦ 100%) | D (50 ≦ D < 60%) | B (80 ≦ B < 90%)
